Laboratory results taken from PubChem BioAssay AID248 (DTP/NCI, 2004).
Values joined by “and” are separate entries in the source; they are usually repeats but may differ in a detail not shown here. Equal entries are not always repeated. Inconclusive results and toxic doses are left out. Rule as the data show it: active = T/C of 150% or more; inactive = T/C below 125%.

Test system: L1210 leukemia ip in BDF1 mice, survival T/C
Assay: NCI In Vivo Anticancer Drug Screen. Data for tumor model L1210 Leukemia (intraperitoneal) in B6D2F1 (BDF1) mice
Conditions: endpoint: mean survival time, higher = longer survival
Summary of the method: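 Each compound was tested against a transplantable tumor grown in mice. The endpoint was survival, with treated animals benchmarked against vehicle controls as a simple ratio.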

[1] = dose: 400.0 mg/kg/injection, schedule: Q01DX001 (ip), vehicle: carboxymethylcellulose (CMC)
[2] = dose: 100.0 mg/kg/injection, schedule: Q04DX003 (ip), vehicle: Klucel (hydroxypropylcellulose) (HPC)
[3] = dose: 200.0 mg/kg/injection, schedule: Q04DX003 (ip), vehicle: Klucel (hydroxypropylcellulose) (HPC)
[4] = dose: 400.0 mg/kg/injection, schedule: Q04DX003 (ip), vehicle: Klucel (hydroxypropylcellulose) (HPC)
[5] = dose: 100.0 mg/kg/injection, schedule: Q01DX001 (ip), vehicle: carboxymethylcellulose (CMC)
[6] = dose: 200.0 mg/kg/injection, schedule: Q01DX001 (ip), vehicle: carboxymethylcellulose (CMC)

Measured: T/C

COc1ccc(/C=C(/c2ccccc2)[N+](=O)[O-])cc1
inactive: dose: 176.0 mg/kg/injection, schedule: Q01DX001 (ip), vehicle: carboxymethylcellulose (CMC) 102 % of control | dose: 264.0 mg/kg/injection, schedule: Q01DX001 (ip), vehicle: carboxymethylcellulose (CMC) 89 % of control | [1] 89 % of control | dose: 600.0 mg/kg/injection, schedule: Q01DX001 (ip), vehicle: carboxymethylcellulose (CMC) 89 % of control

O=S(=O)(O)c1cc(O)c2c(O)c(N=Nc3ccccc3[As](=O)(O)O)c(S(=O)(=O)O)cc2c1
inactive: dose: 50.0 mg/kg/injection, schedule: Q04DX003 (ip), vehicle: saline 102 % of control | dose: 100.0 mg/kg/injection, schedule: Q04DX003 (ip), vehicle: saline 98 % of control and 99 % of control | dose: 200.0 mg/kg/injection, schedule: Q04DX003 (ip), vehicle: saline 103 % of control and 120 % of control | dose: 400.0 mg/kg/injection, schedule: Q04DX003 (ip), vehicle: saline 101 % of control and 103 % of control

Nc1nc(N)nc(-c2ccccc2NC(=O)c2ccccc2N)n1
inactive: dose: 100.0 mg/kg/injection, schedule: Q01DX009 (ip), vehicle: Klucel (hydroxypropylcellulose) (HPC) 95 % of control | [2] 103 % of control | dose: 200.0 mg/kg/injection, schedule: Q01DX009 (ip), vehicle: Klucel (hydroxypropylcellulose) (HPC) 91 % of control | [3] 101 % of control | dose: 400.0 mg/kg/injection, schedule: Q01DX009 (ip), vehicle: Klucel (hydroxypropylcellulose) (HPC) 101 % of control | [4] 95 % of control

CC(=O)OC1=C(C)CCCC(C)(C)C1
inactive: dose: 75.0 mg/kg/injection, schedule: Q01DX001 (ip), vehicle: other 92 % of control | dose: 150.0 mg/kg/injection, schedule: Q01DX001 (ip), vehicle: other 92 % of control | dose: 300.0 mg/kg/injection, schedule: Q01DX001 (ip), vehicle: other 97 % of control

O=C(OC1CC2CCC1CC2)c1ccc([N+](=O)[O-])cc1 (centres undefined)
inactive: dose: 100.0 mg/kg/injection, schedule: Q01DX001 (ip), vehicle: saline 97 % of control | dose: 200.0 mg/kg/injection, schedule: Q01DX001 (ip), vehicle: saline 95 % of control | dose: 400.0 mg/kg/injection, schedule: Q01DX001 (ip), vehicle: saline 92 % of control

O=C(Nc1ccc(F)cc1)Nc1ccc(CCO)cc1
inactive: [5] 99 % of control | dose: 100.0 mg/kg/injection, schedule: Q01DX009 (ip), vehicle: carboxymethylcellulose (CMC) 101 % of control and 104 % of control | dose: 100.0 mg/kg/injection, schedule: Q04DX002 (ip), vehicle: carboxymethylcellulose (CMC) 92 % of control and 87 % of control and 91 % of control | dose: 100.0 mg/kg/injection, schedule: Q04DX003 (ip), vehicle: carboxymethylcellulose (CMC) 95 % of control | [6] 92 % of control | dose: 200.0 mg/kg/injection, schedule: Q01DX009 (ip), vehicle: carboxymethylcellulose (CMC) 92 % of control and 98 % of control | dose: 200.0 mg/kg/injection, schedule: Q04DX002 (ip), vehicle: carboxymethylcellulose (CMC) 87 % of control and 88 % of control and 90 % of control | dose: 200.0 mg/kg/injection, schedule: Q04DX003 (ip), vehicle: carboxymethylcellulose (CMC) 101 % of control | dose: 400.0 mg/kg/injection, schedule: Q01DX009 (ip), vehicle: carboxymethylcellulose (CMC) 92 % of control | dose: 400.0 mg/kg/injection, schedule: Q04DX002 (ip), vehicle: carboxymethylcellulose (CMC) 93 % of control and 87 % of control and 88 % of control | dose: 400.0 mg/kg/injection, schedule: Q04DX003 (ip), vehicle: carboxymethylcellulose (CMC) 91 % of control

O=NC1C(Cl)C2CC1C1C=CCC12 (centres undefined)
inactive: dose: 12.5 mg/kg/injection, schedule: Q01DX009 (ip), vehicle: Klucel (hydroxypropylcellulose) (HPC) 96 % of control | dose: 25.0 mg/kg/injection, schedule: Q01DX009 (ip), vehicle: Klucel (hydroxypropylcellulose) (HPC) 98 % of control | dose: 50.0 mg/kg/injection, schedule: Q01DX009 (ip), vehicle: Klucel (hydroxypropylcellulose) (HPC) 91 % of control | dose: 100.0 mg/kg/injection, schedule: Q01DX009 (ip), vehicle: saline with Tween-80 97 % of control | [2] 94 % of control | [3] 92 % of control | [4] 87 % of control

CC(=O)c1ccc2oc3ccccc3c2c1
inactive: dose: 100.0 mg/kg/injection, schedule: Q04DX002 (ip), vehicle: Klucel (hydroxypropylcellulose) (HPC) 97 % of control | dose: 200.0 mg/kg/injection, schedule: Q04DX002 (ip), vehicle: Klucel (hydroxypropylcellulose) (HPC) 100 % of control | dose: 400.0 mg/kg/injection, schedule: Q04DX002 (ip), vehicle: Klucel (hydroxypropylcellulose) (HPC) 93 % of control

CCc1ccc([N+](=O)[O-])cc1
inactive: [5] 95 % of control | [6] 103 % of control | [1] 97 % of control
